Assay results as given in US20220213047A1, “CARBONIC ANHYDRASE INHIBITORS FOR TREATMENT OF NEISSERIA GONORRHOEAE INFECTION” (Purdue Research Foundation, priority 2021, published 2022).
Values after ≈ are worked out from the molar mass of the structure shown. “Also recorded” adds a separate entry of the source.

How the values were obtained:
[1] = tested on: E. coli; test: MIC50 against pathogenic and commensal bacteria: E. coli; assay type: cell-based; conditions: Escherichia coli; E. coli (8 strains); normal
Source text: (§1) We have shown that CAIs display a narrow-spectrum of activity (Table 6). We have previously shown that CAIs have potential as anti-enterococcal agents for decolonization of the gut and treating systemic vancomycin-resistant enterococci (VRE) infections without affecting commensal strains common in the human microbiome or other pathogenic bacteria. […] The extremely narrow spectrum of this class of inhibitors would be a positive for clinical use as the molecules: 1) would not have deleterious effects on normal microbiota, and 2) would have less opportunity for resistance to arise to other important pathogenic strains aside from VRE.

[2] = tested on: L. jensenii; test: MIC50 against pathogenic and commensal bacteria: L. jensenii; assay type: cell-based; conditions: Lactobacillus jensenii; L. jensenii (3 strains); normal
Source text: as §1

[3] = tested on: L. johnsonii; test: MIC50 against pathogenic and commensal bacteria: L. johnsonii; assay type: cell-based; conditions: Lactobacillus johnsonii; L. johnsonii (1 strain); normal
Source text: as §1

[4] = tested on: N. gonorrhoeae; test: MIC against N. gonorrhoeae clinical isolates, normal and CO2 conditions; assay type: cell-based; conditions: Neisseria gonorrhoeae
Protocol: (§2) These tests were performed in normal culture conditions with standard CO2 levels and in CO2 (5% in incubator) conditions.

[5] = tested on: L. gasseri; test: MIC50 against pathogenic and commensal bacteria: L. gasseri; assay type: cell-based; conditions: Lactobacillus gasseri; L. gasseri (4 strains); normal
Source text: as §1

[6] = tested on: S. epidermidis; test: MIC50 against pathogenic and commensal bacteria: S. epidermidis; assay type: cell-based; conditions: Staphylococcus epidermidis; S. epidermidis (3 strains); normal
Source text: as §1

[7] = tested on: L. rhamnosus; test: MIC50 against pathogenic and commensal bacteria: L. rhamnosus; assay type: cell-based; conditions: Lacticaseibacillus rhamnosus; L. rhamnosus (1 strain); normal
Source text: as §1

[8] = tested on: intracellular N. gonorrhoeae; test: Intracellular clearance of N. gonorrhoeae in infected endocervical cells (End1/E6E7); assay type: cell-based; conditions: 5×MIC, 24 hours
Source text: Intracellular clearance of N. gonorrhoeae—N. gonorrhoeae is known to invade epithelial cells of the genital tract and cross the epithelial barrier into the subepithelial space^59. Previous studies have shown that N. gonorrhoeae can survive inside host cells and pass epithelial cell layers (a key step in causing disseminated infections)^60,61. Therefore, a drug candidate must also be able to kill intracellular N. gonorrhoeae in order to be an effective therapeutic. Also, we were concerned that CAIs have reduced activity in high-CO2 conditions and may not be suitable to treat intracellular infection. Thus, we examined CAIs ability to reduce the burden of intracellular N. gonorrhoeae present in infected endocervical cells^56.

[9] = tested on: Lactobacillus sp; test: MIC50 against pathogenic and commensal bacteria: Lactobacillus sp; assay type: cell-based; conditions: Lactobacillus sp (12 strains); normal
Source text: as §1

[10] = tested on: Enterobacter spp.; test: MIC50 against pathogenic and commensal bacteria: Enterobacter spp.; assay type: cell-based; conditions: Enterobacter spp. (4 strains); normal
Source text: as §1

[11] = tested on: E. coli TolC mutant; test: MIC50 against pathogenic and commensal bacteria: E. coli TolC mutant; assay type: cell-based; conditions: Escherichia coli
Source text: as §1

[12] = tested on: Enterococcus; test: MIC50 against pathogenic and commensal bacteria: Enterococcus; assay type: cell-based; conditions: Enterococcus (49 strains); normal
Source text: as §1

[13] = tested on: L. crispatus; test: MIC50 against pathogenic and commensal bacteria: L. crispatus; assay type: cell-based; conditions: Lactobacillus crispatus; L. crispatus (2 strains); normal
Source text: as §1

[14] = tested on: Bifidobacterium sp; test: MIC50 against pathogenic and commensal bacteria: Bifidobacterium sp; assay type: cell-based; conditions: Bifidobacterium sp (18 strains); normal
Source text: as §1

[15] = tested on: N. gonorrhoeae; test: MIC by agar dilution on a larger panel of N. gonorrhoeae strains; assay type: cell-based, Neisseria gonorrhoeae; conditions: for MIC: Neisseria gonorrhoeae, read-out: MIC
Protocol: as §2

Question: Which MIC50 [1] does the source give for CCOc1ccc2nc(S(N)(=O)=O)sc2c1 [Ethoxzolamide] here?
Answer: > 256 µg/mL

Question: And the MIC50 [2]?
Answer: > 256 µg/mL

Question: And the MIC50 [3]?
Answer: > 256 µg/mL

Question: What about the MIC ([4]; N. gonorrhoeae 178, Non CO2 environment) of the same compound?
Answer: ≤ 0.5 µg/mL

Question: And the MIC ([4]; N. gonorrhoeae 178, normal growth environment (with CO2))?
Answer: > 64 µg/mL

Question: And the MIC ([4]; N. gonorrhoeae 181, Non CO2 environment)?
Answer: ≤ 0.5 µg/mL

Question: What about the MIC ([4]; N. gonorrhoeae 181, normal growth environment (with CO2)) of the same compound?
Answer: > 64 µg/mL

Question: What about the MIC ([4]; N. gonorrhoeae 194, Non CO2 environment) of the same compound?
Answer: ≤ 0.5 µg/mL

Question: What about the MIC ([4]; N. gonorrhoeae 194, normal growth environment (with CO2)) of the same compound?
Answer: > 64 µg/mL

Question: What about the MIC50 [5] of the same compound?
Answer: > 256 µg/mL

Question: And the MIC50 [6]?
Answer: > 256 µg/mL

Question: What about the MIC50 [7] of the same compound?
Answer: > 256 µg/mL

Question: And the “reduction in N. gonorrhoeae inside infected endocervical cells” value [8]?
Answer: 5.8 log10

Question: And the MIC50 [9]?
Answer: > 256 µg/mL

Question: What about the MIC50 [10] of the same compound?
Answer: > 256 µg/mL

Question: And the MIC50 [11]?
Answer: > 256 µg/mL

Question: What about the MIC50 [12] of the same compound?
Answer: 4 µg/mL (≈ 15.5 µM)

Question: What about the MIC50 [13] of the same compound?
Answer: > 256 µg/mL

Question: And the MIC50 [14]?
Answer: > 256 µg/mL

Question: What about the “activity against N. gonorrhoeae under CO2 conditions” value ([15]; CO2 conditions versus standard conditions, listed as EZM) of the same compound?
Answer: did not maintain any activity; also recorded: significant reduction of activity

Question: And the MIC ([15]; N. gonorrhoeae 165, CO2 (5% CO2 containing air))?
Answer: > 128 µg/mL

Question: What about the MIC ([15]; N. gonorrhoeae 166, CO2 (5% CO2 containing air)) of the same compound?
Answer: > 128 µg/mL

Question: And the MIC ([15]; N. gonorrhoeae 166, Non CO2 (ambient air))?
Answer: 0.06 µg/mL (≈ 0.232 µM)

Question: What about the MIC ([15]; N. gonorrhoeae 167, CO2 (5% CO2 containing air)) of the same compound?
Answer: 64 µg/mL (≈ 248 µM)

Question: And the MIC ([15]; N. gonorrhoeae 167, Non CO2 (ambient air))?
Answer: 0.25 µg/mL (≈ 0.968 µM)

Question: And the MIC ([15]; N. gonorrhoeae 170, CO2 (5% CO2 containing air))?
Answer: > 128 µg/mL

Question: And the MIC ([15]; N. gonorrhoeae 170, Non CO2 (ambient air))?
Answer: 0.06 µg/mL (≈ 0.232 µM)

Question: What about the MIC ([15]; N. gonorrhoeae 171, CO2 (5% CO2 containing air)) of the same compound?
Answer: 64 µg/mL (≈ 248 µM)

Question: And the MIC ([15]; N. gonorrhoeae 173, CO2 (5% CO2 containing air))?
Answer: 128 µg/mL (≈ 496 µM)

Question: And the MIC ([15]; N. gonorrhoeae 174, CO2 (5% CO2 containing air))?
Answer: > 128 µg/mL

Question: And the MIC ([15]; N. gonorrhoeae 175, CO2 (5% CO2 containing air))?
Answer: > 128 µg/mL

Question: What about the MIC ([15]; N. gonorrhoeae 175, Non CO2 (ambient air)) of the same compound?
Answer: 0.25 µg/mL (≈ 0.968 µM)

Question: What about the MIC ([15]; N. gonorrhoeae 176, CO2 (5% CO2 containing air)) of the same compound?
Answer: 128 µg/mL (≈ 496 µM)

Question: And the MIC ([15]; N. gonorrhoeae 176, Non CO2 (ambient air))?
Answer: 0.25 µg/mL (≈ 0.968 µM)

Question: And the MIC ([15]; N. gonorrhoeae 177, CO2 (5% CO2 containing air))?
Answer: 16 µg/mL (≈ 61.9 µM)

Question: And the MIC ([15]; N. gonorrhoeae 177, Non CO2 (ambient air))?
Answer: 0.5 µg/mL (≈ 1.94 µM)

Question: And the MIC ([15]; N. gonorrhoeae 178, CO2 (5% CO2 containing air))?
Answer: > 128 µg/mL

Question: What about the MIC ([15]; N. gonorrhoeae 178, Non CO2 (ambient air)) of the same compound?
Answer: 0.06 µg/mL (≈ 0.232 µM)

Question: What about the MIC ([15]; N. gonorrhoeae 179, CO2 (5% CO2 containing air)) of the same compound?
Answer: > 128 µg/mL

Question: What about the MIC ([15]; N. gonorrhoeae 179, Non CO2 (ambient air)) of the same compound?
Answer: 0.25 µg/mL (≈ 0.968 µM)

Question: What about the MIC ([15]; N. gonorrhoeae 180, CO2 (5% CO2 containing air)) of the same compound?
Answer: > 128 µg/mL

Question: And the MIC ([15]; N. gonorrhoeae 181, CO2 (5% CO2 containing air))?
Answer: 64 µg/mL (≈ 248 µM)

Question: What about the MIC ([15]; N. gonorrhoeae 181, Non CO2 (ambient air)) of the same compound?
Answer: 0.25 µg/mL (≈ 0.968 µM)

Question: And the MIC ([15]; N. gonorrhoeae 182, CO2 (5% CO2 containing air))?
Answer: 64 µg/mL (≈ 248 µM)

Question: And the MIC ([15]; N. gonorrhoeae 182, Non CO2 (ambient air))?
Answer: 0.25 µg/mL (≈ 0.968 µM)
